Source: patent US9212205B2, “Nucleic acid binding compounds and methods of use” (University of Rochester, priority 2007, dated 2015)
Like-named read-outs stand apart in the source and are kept apart here.

Legend:
[1] = target: DNA sequence homologous to I (Seq II, SEQ ID NO:2); assay: SPR binding specificity, Seq II
Procedure: (§1) Graphical analysis of Surface Plasmon Resonance (SPR) data was carried out using DeltaGraph (Rockware Inc.). SPR analysis was conducted on a Reichert SR7000 refractometer using Reichert gold sensor slides that consist of a mixed self-assembled monolayer of thiol-PEG-alcohols and thio-PEG-carboxylic acids (˜9:1; PEG=polyethylene glycol). Amine functionalized small molecules were attached by […]/EDC coupling to the carboxy termini of the surface. After activating the monolayer, molecules were covalently attached through the addition of a 1 mg/mL solution of molecule in a sodium acetate buffer (20 mM, pH=5.5). Unreacted activated esters were quenched through the addition of ethanolamine. A flow rate of 10 μL/min and injection volumes of 150 μL was used throughout the experiment. RNA solutions were made to be 15.3 nM, 62.5 nM, 250 nM, 500 nM, 1 μM, 2 μM, 10 μM, and 50 μM. […]
(§2) Specificity was assessed by measuring the affinity of 1-1 to three other oligonucleotides: the DNA sequence homologous to I (Seq II, FIG. 7C, SEQ ID NO:2), the alternate RNA stem-loop (Seq III, FIG. 7D, SEQ ID NO:3) (Karan et al., “RNA-Selective Coordination Complexes Identified via Dynamic Combinatorial Chemistry,” J. Am. Chem. Soc. 123:7455-7456 (2001), which is hereby incorporated by reference in its entirety), and an RNA stem loop with an altered loop sequence (Seq IV, FIG. 7E, SEQ ID NO:4).

[2] = target: alternate RNA stem-loop (Seq III, SEQ ID NO:3); assay: SPR binding specificity, Seq III
Procedure: as §1, §2

[3] = target: HIV-1 frameshift-inducing RNA stem-loop (SEQ ID NO:1); assay: Fluorescence titration of Cy-3 labeled HIV-1 RNA stem-loop; type: binding; conditions: stem-loop 4 × 10^−7 M, PBS buffer, 25° C.
Procedure: The binding of dicarba analogs to the HIV-1 frameshift-inducing RNA was measured using fluorescence spectroscopy. Fluorescence titrations were performed on a Varian Cary eclipse fluorescence spectrophotometer using 1 cm path-length quartz fluorescence cell. The solution of Cy-3 labeled HIV-1 RNA stem-loop in PBS buffer (400 μL, 400 nM) was taken in the cell and excited with a wavelength of 550 nm. A PMT voltage of 715 V was used for collecting the fluorescence data and the emission spectrum was collected from 555 to 600 nm wavelength range. The ligand solution in PBS buffer was added to the target RNA in the cell in either 2 or 4 μL increments and was allowed to equilibrate for 10 minutes before recording the emission spectrum. Statistical analysis of the data was carried out using Origin 7 (OriginLab corporation). Binding constants were determined by fitting the data to one-site binding model equation.
A 5′-Cy3 labeled upper stem-loop of HIV-1 RNA (SEQ ID NO:1) was titrated with increasing amount of the dicarba analogs in a phosphate buffer (PBS, pH 7.4) using the same protocol to that described in Example 3 above. The fluorescence intensity of the labeled RNA stem-loop decreased as a function of the ligand concentration. […] Normally, one would expect a greater difference between the affinities of the two isomers.
To further evaluate the binding selectivity of dicarba analogs to the frameshift-inducing stem-loop, fluorescence titrations were repeated in the presence of twenty-fold excess concentration of yeast tRNA. […] In an interesting result it was discovered that the monomeric compound (5) also bound to the HIV-1 RNA stem-loop with similar affinity as that of the other analogs, but the binding affinity was diminished in the presence of tRNA. […] Quinoline is a known intercalator of nucleotide bases and has the capability to interact with RNA non-specifically. But it is the peptidic part of the molecule in ligands 5-5 E and 5-5 Z that imparts specificity to the interaction between the ligand and the RNA stem-loop. The peptidic part on monomer 5 is insufficient to impart specificity to the interaction as evident from the results.

[4] = system: HIV-1 frameshift-inducing RNA stem-loop; assay: Resin-bead fluorescence microscopy screen (RBDCC) with Cy3-labeled RNA; type: binding; conditions: x-y: x resin-bound, y solution phase; 500 nM RNA stem-loop, 72 hours, 50 msec exposure
Procedure: First, as a control, 450 beads (150 of each size, 3 beads/compound, 387 nmol total) were placed in a 1.5 ml solid phase reaction vessel. To this was added a 1 ml solution of 1 μM RNA-Cy3 in phosphate buffer. This solution was agitated for 3 hours on a LabQuake™ rotator. After such time, the solution was drained by vacuum and washed three times with buffer (1 ml, 1 min. each). After washing, the resin was suspended in 2 ml buffer and placed in a Petri dish.
Next, RBDCC experiments were run in quadruplet. […] After such time, the solution was removed from 1 of the 4 experiments and the resin was washed with buffer, plated with 2 ml buffer, and analyzed by fluorescence microscopy as described above. […]
1, 2, and 3 were individually synthesized on TentaGel (0.86 nmol/bead), and equilibrated as described above in separate vessels containing only 1, 2, or 3 solution phase monomers and 500 nM RNA stem-loop, half the concentration used in the initial screen. After 72 hours the resin was washed in a manner identical to the conditions of screen number 4 (i.e., the highest stringency screen) and analyzed by fluorescence microscopy (50 msec. exposure) (see FIGS. 6A-I).

[5] = target: RNA stem loop with an altered loop sequence (Seq IV, SEQ ID NO:4); assay: SPR binding specificity, Seq IV; conditions: read-out: affinity for sequence IV
Procedure: as §1, §2

With `CCc1nc2ccccc2cc1C(=O)N[C@@H](CSSC[C@H](NC(=O)c1cc2ccccc2nc1CC)C(=O)N1CCC[C@H]1C(=O)N[C@@H](Cc1ccccc1)C(=O)NCCCN)C(=O)N1CCC[C@H]1C(=O)N[C@@H](Cc1ccccc1)C(=O)NCCCN` [dimer 1-1] the “affinity for sequence II” value [1] was “no measurable affinity”, the “affinity for sequence III” value [2] was “no measurable affinity” and the Kd ([3]; 8 μM tRNA (twenty-fold excess), read-out: Binding Affinity (Kd) in the presence of excess yeast tRNA) was 320 ± 70 nM. For the same compound, the Kd ([3]; fluorescence titration, read-out: Binding Affinity (Kd)) was 350 ± 110 nM, the “affinity for the RNA stem-loop by bead fluorescence intensity” value [4] was “highest affinity” and the Kd [5] was greater than 90000 nM.
